The values that follow come from a melting point compilation (Tetko et al.; mined from patent text by program, amines drawn as free bases though some values may be those of a salt).

Molecules are shown by their SMILES.

Take `COc1cc(OC)nc(C2(O)OC(=O)c3c(-c4ccco4)ccnc32)n1` (stereo unspecified): the melting point (commonly the temperature, or range, at which the solid turns liquid) was 198 to 204 °C. The figure for `Clc1ccc(C2=NNCC2n2cc(Cl)cn2)cc1` (stereo unspecified) is 176 °C; for `Cc1c(Cc2ccc(Cl)cc2)c(=O)oc2cc(O)cc(O)c12` it is 270 to 278 °C.

In turn, `O=C(c1ccccc1)N1CCNc2ncc(-c3cccnc3)cc21` registered a melting point of 219 to 220 °C. With `Nc1cccc(Nc2nccc(Sc3cccc(Br)c3)n2)c1` the figure was 109 to 110 °C; with `CC(=O)N(C(C)=O)c1c(Cl)c(C)nn1C(CCN1C(=O)c2ccccc2C1=O)=NOS(=O)(=O)c1ccc(C)cc1`, 143 to 147 °C.

For `O=CC(=Cc1ccccc1)c1ccc(F)cc1`, the melting point lay within 87 to 94 °C.

As to `O=C1CN(c2ccc(C(Br)C(Br)c3ccccc3)cc2OCc2ccccc2)S(=O)(=O)N1` (stereo unspecified), the melting point fell in the range of 173 to 175 °C.

In the case of `CCCCc1nc2c(N)nc3ccccc3c2n1CCOCc1ccccc1`, the melting point was in the range of 133 to 135 °C. The figure for `Cc1ccc(C2CCN(C(=O)CCC(=O)c3ccc4c(c3)CN(C)CC4)CC2)cc1` is 97 to 99 °C; for `CC(C)(C)CC(C)(CO)C(=O)O` (stereo unspecified) it is 96.5 to 100 °C. The figure for `O=C(OCCOCCO)c1ccc(O)c(Cl)c1` is 77.5 to 78 °C; for `O=[N+]([O-])c1c(-c2ccc(Cl)cc2)[nH]c(SC(F)(F)F)c1Br` it is 160 to 165 °C. With `NNC(=O)c1cc2ccncc2c2sc3ccccc3c12` the figure was 285 to 289 °C; with `C=CCNC(=O)c1ccccc1I`, 105 to 106 °C; with `O=C1COCC2=C1C(c1ccc(F)c(I)c1)C1=C(CCS1)N2` (stereo unspecified), greater than 260 °C.

In turn, `COc1ccc2c(n1)C1(CO2)C(=O)Nc2cccc(Br)c21` (stereo unspecified) had a melting point of 265 to 268 °C. `O=C(c1c[nH]c2nc(Cl)ccc12)N1CCN2CCC1CC2`: the melting point lay in the range of 228 to 229 °C. With `CC(=O)SCC(Cc1cccnc1)C(=O)Nc1cccc(C(=O)O)c1` (stereo unspecified) the figure was greater than 200 °C. With `Cc1c(NC(=O)OC(C)(C)C)cnn1-c1cccnc1` the figure was 89 to 91 °C; with `CCC(CC)c1ccc(Cl)c2nc3n(c12)CCCCN3c1cnc(N2CCCC2)cc1C`, 160 to 161 °C.

The compound `COc1ccc2c(C(=O)C(F)(F)F)c[nH]c2c1` registered a melting point of 206 to 208 °C. Regarding `COc1cc(Br)c(OC)c2c1C=C([N+](=O)[O-])CC2`, the melting point fell in the range of 121 to 123 °C. `Cc1nc(-c2ccccc2)c(NC(=O)Nc2ccccc2)s1`: the melting point lay in the range of 199 to 201 °C. The figure for `Oc1ccc2[nH]cc(CCN3CCC(O)(c4ccccc4)CC3)c2c1` is 150 °C; for `OC1(c2ccc(Cl)cc2)CCN(Cc2c[nH]c3ccccc23)CC1` it is 213 to 214 °C; for `CCOC(=O)c1cn(-c2nnn[nH]2)c2cc(F)c(F)cc2c1=O` it is 233 to 236 °C. The figure for `Cc1cc(C(C)(C)C)cc(CN)c1S` is 127 to 131 °C; for `O=C1CCCN1C(=O)NCCn1cccn1` it is 62.5 to 63.5 °C; for `OCc1cn(-c2ccc3c(c2)OC(F)(F)O3)cn1` it is 163 to 164 °C. `COC(=O)Cc1ccc(OCCNC(=O)C2Cc3ccccc3N2S(=O)(=O)c2ccc(-c3cc(Cl)ccc3Cl)cc2)cc1` (stereo unspecified) gave a melting point of 61 to 65 °C.

As for `CC(C)(C)C(=O)Oc1ccc(CCNC(=O)c2cccnc2)cc1OC(=O)C(C)(C)C`, the melting point fell in the range of 112 to 114 °C. The figure for `NNc1ccc(S(=O)(=O)c2ccc(NN)cc2)cc1` is 179 to 183 °C; for `C#CCc1c(C)nc2c(OCc3ccccc3S(C)(=O)=O)cccn12` it is 179 to 180 °C. The figure for `CCC(C(C)=CC(CNC(=O)c1nc[nH]n1)=NO)[N+](=O)[O-]` (stereo unspecified) is 131 to 136 °C; for `CN(C(=O)N(C)n1cnc2ccccc2c1=O)c1ccc(Cl)cc1` it is 97 to 120 °C.

Take `NC(=O)C(F)(F)Cc1c[nH]c([N+](=O)[O-])n1`: the melting point was in the range of 150 to 152 °C.

Compound `CC=CCn1c(N(C(C)=O)c2cc(C)cc(C)c2)c(C(C)C)c(=O)[nH]c1=O` returned a melting point of 103 to 105 °C. With `CC1(C)CCOc2cc(C(=O)Nc3ccc(C(=O)O)cc3)ccc21` the figure was 279 to 281 °C. `O=C(Nc1ccc(-n2nc(C3CC3)cc2C2CC2)cc1)c1ccc2nccnc2c1`: the melting point was in the range of 162 to 167 °C. The compound `OCc1snc(Cl)c1Cl` yielded a melting point of 94 to 95 °C. In turn, `O=c1[nH]c2c3ccccc3c(=CO)c2n2ccnc12` displayed a melting point of 290 °C.

In turn, `O=CC(=C(Cl)c1ccc(Cl)cc1Cl)c1ccc(Cl)cc1` yielded a melting point of 128 °C.

In turn, `COC(=O)CCc1c[nH]cn1` came in with a melting point of 105 to 108 °C. In turn, `COc1ccccc1-c1[nH]nc2c1C(=O)c1c(NC(C)=O)cccc1-2` came in with a melting point of 276 °C. The figure for `COC(=O)c1ccc(Cc2c[nH]c3ccc(C(=O)OC)cc23)c(OC)c1` is 136 to 138 °C; for `O=C(O)[C@@H](Cc1ccccc1)Oc1c(Br)cc(-c2c3ccccc3c(Br)c3sc4ccccc4c23)cc1Br` it is 140 to 142 °C; for `CCCCCCCCCCCCCCCCCCOC(=O)P(=O)(O)O` it is 81 to 82 °C.

Regarding `NCC(=O)NC(Cc1cccnc1)c1ccccc1` (stereo unspecified), the melting point lay in the range of 93.5 to 94.5 °C. The figure for `O=C(SC(Cn1ccnc1)c1ccc(Cl)cc1Cl)c1ccccc1` (stereo unspecified) is 115 to 116 °C; for `O=C(NC1=NCCCN1)Nc1c(Cl)cccc1Cl` it is 179 to 180 °C. The figure for `Cc1ccc(NC(=O)c2ccc(O)c(N)c2)cc1C` is 220 to 223 °C. Turning to `O=C1CCC(C(=O)c2ccc(C3CCCCC3)cc2)N1` (stereo unspecified), the melting point turned out to be 200 °C.

In the case of `Cc1ccc2c(c1)c1c(n2C(=O)c2ccc(F)cc2)CCC(C(=O)O)C1` (stereo unspecified), the melting point was 230 to 233 °C. In the case of `O=S(=O)(c1ccccc1)c1ccc(Br)cc1`, the melting point fell in the range of 95 to 99 °C. Compound `Cc1c(F)c(Oc2cccc(C(=N)N)c2)nc(Oc2cccc(C(=N)N)c2)c1F` registered a melting point greater than 210 °C. With `O=C(C=Cc1ccccc1)N1CCc2c([nH]c3ccccc23)C1c1ccc2c(c1)CCC2` (stereo unspecified) the figure was 223 °C.

`Cc1ccn(-c2ccc(C(=O)N3Cc4cccn4Cc4ccccc43)c(F)c2)n1` came in with a melting point of 192 to 193 °C. In turn, `CC1CC(=O)c2cc([N+](=O)[O-])c(Br)cc2O1` (stereo unspecified) showed a melting point of 125 to 128 °C. With `Clc1ccc2c(CCN3CCN(c4cccc5c4OCCO5)CC3)c[nH]c2c1` the figure was 215 to 216 °C; with `CN1CCN(CCCn2cc(Br)c3c4c(c(-c5ccccc5Cl)cc32)C(=O)NC4=O)CC1`, 150 to 152 °C.

Compound `CCOc1cc(CCl)ccc1OCc1nc(-c2ccccc2)oc1C` yielded a melting point of 138 to 139 °C. With `COc1nc(N)nc(OC)n1` the figure was 218 to 221 °C; with `CC(=O)Nc1ccc(CC(=O)N[C@H]2C[C@H](C(=O)O)Nc3cc(Cl)cc(Cl)c32)cc1` (relative stereo), 279 to 281 °C; with `CCOP(=O)(OCC)c1ccc(Oc2ccccc2[N+](=O)[O-])cc1`, 150 °C.

`C#CCN1C(=O)COc2ccc(-n3c(OC)nc(C(F)(F)F)cc3=O)cc21` displayed a melting point of 218 to 220 °C.
